Read-outs that look alike come from different tables or passages of the source.
What was measured:
[1] = Stability of the analytes in rat plasma under different storage conditions (QC samples); assay type: in vitro ADME; conditions: n = 3; for Remaining (%) / remaining at 4 h / remaining at 360 h: rat plasma; for Remaining (%): freeze–thaw cycles (three); for remaining at 24 h / remaining at 4 h / remaining at 360 h: rat; for remaining at 24 h: extracted plasma QC samples in auto-sampler, 4 °C for 24 h; for remaining at 4 h: 25 °C for 4 h; for remaining at 360 h: at −70 °C for 15 days
Procedure: The stability of the seven compounds in rat plasma was assessed by analyzing the QC samples at three concentrations under different sample storage conditions and processing procedures. Short-term stability was assessed by analyzing the QC samples that were kept at room temperature for 4 h, which exceeded the routine sample preparation time. […] Freeze-thaw stability was investigated after three freeze (−40 °C) and thaw (room temperature) cycles. Post-preparation stability was assessed by analyzing the extracted QC samples that were kept in the auto-sampler at 4 °C for […]. All stability testing QC samples were evaluated using the calibration curve of the freshly prepared samples.

[2] = tested on: phosphorylation of ERK, JNK, IKK stimulated by TNF-α; set-up: method as in PMID 23978582; conditions: cited from earlier work
[3] = Pharmacokinetic study in rats after single oral administration of GJK (UPLC-MS/MS of plasma); assay type: in vivo, Sprague–Dawley rats; conditions: single oral GJK 24 g/kg; for AUC(0-inf) / half-life / Cmax / MRT last / AUC(0-t) / Tmax: Sprague-Dawley; for AUC(0-inf) / half-life / Cmax / MRT last / AUC(0-t) / Tmax (time to reach peak concentration): rat plasma; for AUC(0-inf): n = 6, AUC0–t extrapolated to infinity; for AUC(0-inf) / AUC(0-t): mean ± S.D.; for half-life / Cmax / MRT last: n = 6, mean ± S.D.; for half-life: non-compartmental, read-out: T1/2z (terminal elimination half-life); for Cmax: read-out: Cmax (maximum plasma concentration); for MRT last: read-out: MRT0–t (mean residence time) (converted); for AUC(0-t): n = 6, zero to last sampling time; for Tmax: rat, po, 24 g/kg, read-out: Tmax (time to reach peak concentration) (converted); for Tmax / Tmax (time to reach peak concentration): n = 6, median (minimum, maximum)
Procedure: Chromatographic analyses were performed using an Agilent 1290 series UPLC system (Agilent Technologies, Santa Clara, CA, USA) equipped with a binary pump, an online degasser, an auto plate sampler, and a thermostatically controlled column compartment. The determination was carried out at 30 °C on a Waters Acquity UPLC C18 column (100 mm × 2.1 mm, […], Waters, Milford, MA, USA). The mobile phase consisted of 0.1% formic acid (A) and acetonitrile (B) using a gradient elution of 10%–34% B at 0–6 min, 34%–80% B at 6–10 min, 80% B at 10–12 min, 10% B at 12–15 min, and the re-equilibration time of gradient elution was 1 min. The sample injection volume was 5 µL, and the flow rate was 0.35 mL/min. The MS detection was performed using an Agilent 6460 Triple Quadrupole MS (Agilent Technologies) equipped with an electrospray ionization (ESI) source. […] Other parameters were as follows: drying gas (N2) flow rate, 11.0 L/min.
Plasma samples (50 µL) were thawed on ice and mixed with 200 µL of IS (20.0 ng/mL) via vortexing for 1 min. Then, the mixture was centrifuged at 13,500 rpm for 15 min to separate the precipitated protein at 4 °C. The supernatant was transferred into a clean Eppendorf tube and evaporated to dryness under a stream of nitrogen. The residues were reconstituted with 50 µL of water–methanol (50:50, v/v), vortexed and centrifuged at 13,500 rpm for 15 min. Then, the supernatants were injected into the UPLC–MS/MS for analysis.
Sprague–Dawley rats (200–250 g) were obtained from the Center of the Chinese University of Hong Kong and were kept in an environmentally controlled room (temperature: 25 ± 2 °C, humidity: 50% ± 5%, 12 h dark-light cycle) for at least 7 days before the experiments. Prior to the experiments, the animals were fasted for 24 h with water ad libitum. All protocols of animal experiments were approved in accordance with the regulations of the Experimental Animal Administration issued by the Macau University of Science and Technology.
The blood samples (100 µL) were individually collected from the caudal vein into heparinized tubes before administration, and 5, 10, 15, 30, 45, 60, 90, 120, 240, 360, 480, 720 and 1440 min after administration, and then immediately centrifuged at 4500 rpm for 15 min. […] The main PK parameters, including the maximum plasma concentration (Cmax), time to reach Cmax (Tmax), half-life time (T1/2), area under the curve (AUC 0–t and AUC 0–∞) and mean residence time (MRT), were calculated via the non-compartment model using the pharmacokinetic software, PK Solutions 2.0 (Summit Co., Montrose, CO, USA).

[4] = tested on: ages-induced mesangial cell damage; set-up: method as in PMID 23881455; conditions: in vitro; read-out: IC50 of antioxidative and anti-inflammatory activities; cited from earlier work
[5] = tested on: NLRP3-activated ASC oligomerization; set-up: method as in PMID 25210146; conditions: cited from earlier work
[6] = tested on: NLRP3-dependent interleukin (IL)-1β production; set-up: method as in PMID 25210146; conditions: cited from earlier work
[7] = tested on: toll-like receptor 4 (TLR4)/MD2 complex; set-up: method as in PMID 22422925; conditions: cited from earlier work
[8] = plasma, medium QC concentration

Structure (SMILES)	Remaining (%) ([1]; high QC concentration)	Remaining (%) ([1]; low QC concentration)	Remaining (%) ([1]; medium QC concentration)	remaining at 24 h ([1]; plasma, high QC concentration)	remaining at 24 h ([1]; plasma, low QC concentration)	remaining at 24 h [1, 8]	remaining at 4 h ([1]; plasma, high QC concentration)	remaining at 4 h ([1]; plasma, low QC concentration)	remaining at 4 h [1, 8]	remaining at 360 h ([1]; plasma, high QC concentration)	remaining at 360 h ([1]; plasma, low QC concentration)	remaining at 360 h [1, 8]	AUC(0-inf) ([3]; in vivo)	half-life ([3]; in vivo)	Cmax ([3]; in vivo)	MRT last ([3]; in vivo)	AUC(0-t) ([3]; in vivo)	Tmax ([3]; in vivo)	Tmax ([3]; plasma)	Tmax (time to reach peak concentration) [3]	other results
C[C@@]12C[C@@]3(O)O[C@@H](O1)[C@]1(COC(=O)c4ccccc4)[C@H]3C[C@@]12O[C@@H]1O[C@H](CO)[C@@H](O)[C@H](O)[C@H]1O [Paeoniflorin, paeoniflorin]	105.0%	107.8%	106.4%	103%	98.3%	105%	96.4%	102%	102%	104%	98.6%	104%	1230 ng·h/mL	3.5 ± 0.633 h	905 ± 226 ng/mL	3.32 h	1220 ng·h/mL	< 0.767 h			Concentration that inhibits phosphorylation of ERK, JNK, IKK [2]: 25 ng/mL; IC50 [4]: 420 µM
COc1ccc(-c2coc3cc(O)ccc3c2=O)cc1 [Formononetin, formononetin]																	15.2 ng·h/mL		< 0.767 h	45 (30, 45) min	AUC(0-inf) [3]: 18.7 ng·h/mL; half-life [3]: 15.8 ± 1.62 h; Cmax [3]: 6.79 ± 2.18 ng/mL; MRT last [3]: 12.9 h
O=C(/C=C/c1ccc(O)cc1)c1ccc(O)cc1O [Isoliquiritigenin, isoliquiritigenin]	105.2%	106.3%	107.0%	102%	94.6%	102%	103%	102%	103%	102%	103%	96.2%	2750 ng·h/mL	4.88 ± 0.8 h	337 ± 103 ng/mL	7.75 h	2650 ng·h/mL	3 h			Effect on NLRP3-activated ASC oligomerization [5]: inhibit NACHT, LRR and PYD domains-containing protein 3 (NLRP3)-activated apoptosis-associated speck-like protein (ASC) oligomerization; Concentration that inhibits NLRP3-dependent IL-1β production ([6]; at both the priming step and the activation step): 1 µM; Concentration that inhibits NLRP3-dependent IL-1β production, converted to mass concentration ([6]; printed as equal to 1 µM): 256 ng/mL; Effect on LPS-induced TLR4/MD2 complex signaling and NF-κB activation [7]: block lipopolysaccharides (LPS)-induced toll-like receptor 4 (TLR4)/MD2 complex signaling and nuclear factor NF-κB activation
COc1cc2c(cc1OC)[C@@H]1Cc3ccc(OC)c(OC)c3CN1CC2 [Tetrahydropalmatine, tetrahydropalmatine]	108.1%	89.9%	107.4%	101%	105%	98.4%	102%	103%	101%	103%	104%	103%	184 ng·h/mL	5.17 ± 0.9 h	42 ± 13.4 ng/mL	8.2 h	170 ng·h/mL	3.15 h		180 (180, 180) min	
COc1ccc(-c2coc3cc(O[C@@H]4O[C@H](CO)[C@@H](O)[C@H](O)[C@H]4O)ccc3c2=O)cc1O [Calycosin-7-glucoside, calycosin-7-glucoside]	107.4%	108.1%	107.3%				103%	106%	96%	102%	108%	94.3%							< 0.767 h	45 (45, 60) min	remaining at 24 h ([1]; high QC concentration): 103%; remaining at 24 h ([1]; low QC concentration): 104%; remaining at 24 h ([1]; medium QC concentration): 104%; AUC(0-inf) [3]: 79.3 ng·h/mL; half-life [3]: 4.43 ± 0.733 h; Cmax [3]: 52.2 ± 14.8 ng/mL; MRT last [3]: 2.17 h; AUC(0-t) [3]: 77.4 ng·h/mL
COCC12CCC(OC)C34C5CC6(O)C(OC)C(O)C(O)(C5C6OC(=O)c5ccccc5)C(C(OC)C13)C4N(C)C2 (stereo not shown) [Benzoylhypaconine, benzoylhypaconine]	106.9%	109.6%	92.7%	104%	107%	104%	105%	108%	108%	105%	108%	104%	76.7 ng·h/mL	6.37 ± 1.08 h	35.6 ± 10.2 ng/mL	6.25 h	72.1 ng·h/mL	< 0.767 h		30 (30, 45) min	

Source: article PMC6272869, “Simultaneous Determination of Multiple Components in Guanjiekang in Rat Plasma via the UPLC–MS/MS Method and Its Application in Pharmacokinetic Study” (Molecules, 2016)
